Results taken from ChEMBL document CHEMBL1154622, “Structure-guided design of potent and selective pyrimidylpyrrole inhibitors of extracellular signal-regulated kinase (ERK) using conformational control” (J Med Chem, 2009).

Legend:
[1] = target: Proto-oncogene tyrosine-protein kinase receptor Ret (Homo sapiens) (UniProt P07949); assay: Inhibition of RET at 1 uM
[2] = target: Mitogen-activated protein kinase kinase kinase kinase 4 (Homo sapiens) (UniProt O95819); assay: Inhibition of MAP4K4 at 1 uM
Chain of Mitogen-activated protein kinase kinase kinase kinase 4 (Homo sapiens) (O95819 2-1239 limits assumed): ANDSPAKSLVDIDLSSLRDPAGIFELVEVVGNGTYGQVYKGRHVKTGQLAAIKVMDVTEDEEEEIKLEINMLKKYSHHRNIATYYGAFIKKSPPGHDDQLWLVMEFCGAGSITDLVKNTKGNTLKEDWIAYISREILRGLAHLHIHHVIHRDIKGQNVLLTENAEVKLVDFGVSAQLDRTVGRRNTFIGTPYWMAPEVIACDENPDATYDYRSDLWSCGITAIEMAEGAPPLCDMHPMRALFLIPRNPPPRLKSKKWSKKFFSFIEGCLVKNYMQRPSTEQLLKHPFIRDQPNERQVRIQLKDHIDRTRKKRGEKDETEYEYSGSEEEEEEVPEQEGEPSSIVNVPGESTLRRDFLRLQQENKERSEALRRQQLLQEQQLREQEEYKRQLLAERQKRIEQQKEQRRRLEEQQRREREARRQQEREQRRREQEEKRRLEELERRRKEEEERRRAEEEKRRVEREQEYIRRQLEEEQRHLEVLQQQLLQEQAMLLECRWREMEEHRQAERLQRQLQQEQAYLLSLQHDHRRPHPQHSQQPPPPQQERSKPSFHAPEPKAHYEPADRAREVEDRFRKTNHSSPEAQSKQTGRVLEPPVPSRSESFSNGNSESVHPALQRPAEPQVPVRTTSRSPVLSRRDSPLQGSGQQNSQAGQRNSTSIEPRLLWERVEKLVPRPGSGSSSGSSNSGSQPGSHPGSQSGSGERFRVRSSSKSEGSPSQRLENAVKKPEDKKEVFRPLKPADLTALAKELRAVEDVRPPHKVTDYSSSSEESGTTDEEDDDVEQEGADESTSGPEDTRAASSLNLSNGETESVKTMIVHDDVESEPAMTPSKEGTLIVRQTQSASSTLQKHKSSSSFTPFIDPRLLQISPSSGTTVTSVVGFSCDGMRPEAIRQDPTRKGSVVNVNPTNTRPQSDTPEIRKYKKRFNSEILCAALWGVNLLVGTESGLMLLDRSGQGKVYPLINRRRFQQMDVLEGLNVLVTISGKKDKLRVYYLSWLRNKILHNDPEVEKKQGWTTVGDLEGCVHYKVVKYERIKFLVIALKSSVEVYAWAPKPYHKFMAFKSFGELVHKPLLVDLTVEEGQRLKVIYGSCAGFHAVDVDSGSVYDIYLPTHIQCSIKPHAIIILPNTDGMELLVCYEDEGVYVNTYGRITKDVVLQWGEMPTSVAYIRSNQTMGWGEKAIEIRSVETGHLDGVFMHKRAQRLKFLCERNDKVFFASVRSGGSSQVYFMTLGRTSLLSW

[3] = target: Receptor-type tyrosine-protein kinase FLT3 (Homo sapiens, UniProt P36888); assay: Inhibition of FLT3
[4] = target: Vascular endothelial growth factor receptor 2 (Homo sapiens, UniProt P35968); assay: Inhibition of KDR
[5] = target: Ephrin type-B receptor 2 (Homo sapiens) (UniProt P29323); assay: Inhibition of EPH-B2 at 1 uM
[6] = target: Inhibitor of nuclear factor kappa-B kinase subunit beta (Homo sapiens) (UniProt O14920); conditions: 2 uM
Description: Inhibition of IKK-beta at 2 uM

[7] = target: Dual specificity mitogen-activated protein kinase kinase 6 (Homo sapiens) (UniProt P52564); assay: Inhibition of MKK6 at 2 uM
[8] = target: Tyrosine-protein kinase Yes (Homo sapiens) (UniProt P07947); assay: Inhibition of YES at 1 uM
Chain of Tyrosine-protein kinase Yes (Homo sapiens) (P07947 2-543 limits assumed): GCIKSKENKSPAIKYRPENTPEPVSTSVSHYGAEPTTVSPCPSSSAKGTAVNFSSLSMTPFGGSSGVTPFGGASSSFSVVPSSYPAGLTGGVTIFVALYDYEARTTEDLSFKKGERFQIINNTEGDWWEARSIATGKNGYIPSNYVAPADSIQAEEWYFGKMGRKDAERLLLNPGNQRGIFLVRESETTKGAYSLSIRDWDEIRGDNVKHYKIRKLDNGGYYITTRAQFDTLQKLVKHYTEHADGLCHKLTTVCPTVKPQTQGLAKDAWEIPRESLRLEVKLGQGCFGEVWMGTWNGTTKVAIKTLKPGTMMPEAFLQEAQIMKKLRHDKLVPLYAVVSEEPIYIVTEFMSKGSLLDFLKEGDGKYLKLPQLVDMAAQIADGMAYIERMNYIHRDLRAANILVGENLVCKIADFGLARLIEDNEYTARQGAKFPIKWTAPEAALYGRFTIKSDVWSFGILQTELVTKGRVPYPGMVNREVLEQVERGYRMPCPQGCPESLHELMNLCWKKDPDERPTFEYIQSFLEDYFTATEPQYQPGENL

[9] = target: Vascular endothelial growth factor receptor 1 (Homo sapiens) (UniProt P17948); assay: Inhibition of FLT-1 at 1 uM
[10] = target: Interleukin-1 receptor-associated kinase 1 (Homo sapiens, UniProt P51617); assay: Inhibition of IRAK1
Chain of Interleukin-1 receptor-associated kinase 1 (P51617 whole entry): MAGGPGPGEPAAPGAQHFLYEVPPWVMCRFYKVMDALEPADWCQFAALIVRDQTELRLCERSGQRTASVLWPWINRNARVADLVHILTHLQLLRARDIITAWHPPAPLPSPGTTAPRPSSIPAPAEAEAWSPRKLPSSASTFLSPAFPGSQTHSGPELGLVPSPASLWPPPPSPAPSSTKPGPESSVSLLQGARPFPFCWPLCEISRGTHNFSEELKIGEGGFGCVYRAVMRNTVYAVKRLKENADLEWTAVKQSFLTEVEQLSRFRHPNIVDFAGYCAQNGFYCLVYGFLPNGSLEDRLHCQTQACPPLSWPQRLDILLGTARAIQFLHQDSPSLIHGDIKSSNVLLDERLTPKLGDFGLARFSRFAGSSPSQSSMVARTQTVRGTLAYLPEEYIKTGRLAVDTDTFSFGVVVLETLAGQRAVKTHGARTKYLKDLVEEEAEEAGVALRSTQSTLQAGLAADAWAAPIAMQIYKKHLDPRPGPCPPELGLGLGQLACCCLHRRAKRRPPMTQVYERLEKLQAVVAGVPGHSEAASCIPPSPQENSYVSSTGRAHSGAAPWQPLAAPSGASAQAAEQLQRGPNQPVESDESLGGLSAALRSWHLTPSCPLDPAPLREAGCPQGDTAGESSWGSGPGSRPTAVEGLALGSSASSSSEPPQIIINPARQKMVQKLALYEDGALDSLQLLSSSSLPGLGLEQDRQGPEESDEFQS

[11] = target: Calcium/calmodulin-dependent protein kinase type IV (Homo sapiens) (UniProt Q16566); assay: Inhibition of CAMK4 at 2 uM
[12] = target: Tyrosine-protein kinase CSK (Homo sapiens) (UniProt P41240); assay: Inhibition of CSK at 2 uM
[13] = target: Serine/threonine-protein kinase Nek2 (Homo sapiens) (UniProt P51955); assay: Inhibition of NEK2 at 1 uM
[14] = target: Platelet-derived growth factor receptor alpha (Homo sapiens) (UniProt P16234); assay: Inhibition of PDGFRalpha at 2 uM
[15] = target: Tyrosine-protein kinase Blk (Homo sapiens) (UniProt P51451); assay: Inhibition of BLK at 2 uM
[16] = target: Dual specificity mitogen-activated protein kinase kinase 4 (Homo sapiens) (UniProt P45985); assay: Inhibition of MKK4 at 2 uM
[17] = AUC (0 to 8 hrs) in mouse at 5 mg/kg, iv; assay type: ADME, organism-based; parameters: time < 8 hr, dose 5 mg/kg, route intravenous; conditions: plasma
[18] = target: Tyrosine-protein kinase JAK2 (Homo sapiens, UniProt O60674); assay: Inhibition of JAK2
[19] = target: Protein-tyrosine kinase 2-beta (Homo sapiens) (UniProt Q14289); assay: Inhibition of PYK2 at 1 uM
[20] = target: Calcium/calmodulin-dependent protein kinase type II subunit alpha (Homo sapiens) (UniProt Q9UQM7); assay: Inhibition of CAMK2 at 2 uM
[21] = target: Serine/threonine-protein kinase BRSK1 (Homo sapiens) (UniProt Q8TDC3); assay: Inhibition of BRSK1 at 1 uM
[22] = Plasma concentration in mouse at 5 mg/kg, iv after 8 hrs; assay type: ADME, organism-based; parameters: dose 5 mg/kg, route intravenous
[23] = target: Tyrosine-protein kinase Mer (Homo sapiens) (UniProt Q12866); assay: Inhibition of MER at 1 uM
[24] = target: Serine/threonine-protein kinase PLK1 (Homo sapiens, UniProt P53350); assay: Inhibition of PLK1
Chain of Serine/threonine-protein kinase PLK1 (P53350 whole entry): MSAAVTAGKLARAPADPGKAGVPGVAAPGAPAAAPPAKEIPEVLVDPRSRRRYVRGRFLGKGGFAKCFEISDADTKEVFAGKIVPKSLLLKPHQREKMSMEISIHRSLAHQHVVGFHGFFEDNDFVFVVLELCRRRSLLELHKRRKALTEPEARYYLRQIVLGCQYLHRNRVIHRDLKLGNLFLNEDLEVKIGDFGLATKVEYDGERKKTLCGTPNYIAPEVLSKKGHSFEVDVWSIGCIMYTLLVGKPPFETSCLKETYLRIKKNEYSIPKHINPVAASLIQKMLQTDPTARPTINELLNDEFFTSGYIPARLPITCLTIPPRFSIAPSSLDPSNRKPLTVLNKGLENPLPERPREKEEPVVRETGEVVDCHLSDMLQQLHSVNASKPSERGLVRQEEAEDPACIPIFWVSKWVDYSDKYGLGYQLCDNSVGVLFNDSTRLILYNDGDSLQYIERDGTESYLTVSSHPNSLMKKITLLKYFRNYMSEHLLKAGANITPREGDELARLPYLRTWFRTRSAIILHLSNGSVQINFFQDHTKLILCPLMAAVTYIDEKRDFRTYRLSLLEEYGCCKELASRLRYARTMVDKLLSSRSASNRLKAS

[25] = target: Serine/threonine-protein kinase Sgk1 (Homo sapiens) (UniProt O00141); assay: Inhibition of SGK1 at 1 uM
[26] = target: Mitogen-activated protein kinase kinase kinase 8 (Homo sapiens, UniProt P41279); assay: Inhibition of COT
[27] = target: Dual specificity mitogen-activated protein kinase kinase 7 (Homo sapiens) (UniProt O14733); assay: Inhibition of MKK7 at 2 uM
[28] = target: Citron Rho-interacting kinase (Homo sapiens, UniProt O14578); assay: Inhibition of CIT
[29] = Half life in rat at 3 mg/kg, iv; assay type: ADME, organism-based; parameters: dose 3 mg/kg, route intravenous; conditions: in vivo
[30] = target: Cyclin-dependent kinase 1 (Homo sapiens) (UniProt P06493); assay: Inhibition of CDK1 at 1 uM
Chain of Cyclin-dependent kinase 1 (Homo sapiens) (P06493 whole entry, looked up, the tested form may be a part): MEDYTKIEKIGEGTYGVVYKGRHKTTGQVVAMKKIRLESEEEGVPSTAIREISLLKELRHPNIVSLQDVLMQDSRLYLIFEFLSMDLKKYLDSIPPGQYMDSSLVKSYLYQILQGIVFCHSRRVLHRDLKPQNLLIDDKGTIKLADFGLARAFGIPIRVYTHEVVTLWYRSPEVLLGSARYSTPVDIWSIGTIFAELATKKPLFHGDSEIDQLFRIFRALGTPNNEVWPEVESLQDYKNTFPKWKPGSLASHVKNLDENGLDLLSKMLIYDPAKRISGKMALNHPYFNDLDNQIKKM

[31] = target: PAS domain-containing serine/threonine-protein kinase (Homo sapiens) (UniProt Q96RG2); assay: Inhibition of PASK at 1 uM
[32] = Oral bioavailability in rat at 10 mg/kg; assay type: ADME, organism-based; conditions: in vivo
[33] = target: Serine/threonine-protein kinase Sgk1 (Homo sapiens, UniProt O00141); assay: Inhibition of SGK1
[34] = target: Casein kinase I isoform alpha (Homo sapiens) (UniProt P48729); assay: Inhibition of CK1 at 2 uM
[35] = target: Proto-oncogene tyrosine-protein kinase ROS (Homo sapiens) (UniProt P08922); assay: Inhibition of ROS at 1 uM
[36] = target: Ribosomal protein S6 kinase alpha-3 (Homo sapiens) (UniProt P51812); assay: Inhibition of RSK2 at 1 uM
[37] = target: MAP kinase-activated protein kinase 3 (Homo sapiens) (UniProt Q16644); assay: Inhibition of MAPKAPK3 at 1 uM
[38] = target: Testis-specific serine/threonine-protein kinase 2 (Homo sapiens) (UniProt Q96PF2); assay: Inhibition of TSSK2 at 1 uM
[39] = target: Protein kinase C alpha type (Homo sapiens) (UniProt P17252); assay: Inhibition of PKCalpha at 2 uM
[40] = target: Insulin receptor-related protein (Homo sapiens) (UniProt P14616); assay: Inhibition of IRR at 1 uM
[41] = target: [Pyruvate dehydrogenase (acetyl-transferring)] kinase isozyme 1, mitochondrial (Homo sapiens) (UniProt Q15118); assay: Inhibition of PDK1 at 2 uM
[42] = Volume of distribution at steady state in mouse at 5 mg/kg, iv; assay type: ADME, organism-based; parameters: dose 5 mg/kg, route intravenous; conditions: in vivo, read-out: Vdss
[43] = target: Serine/threonine-protein kinase Chk1 (Homo sapiens) (UniProt O14757); assay: Inhibition of CHK1 at 2 uM
[44] = target: Cytoplasmic tyrosine-protein kinase BMX (Homo sapiens) (UniProt P51813); assay: Inhibition of BMX at 1 uM
[45] = target: Cyclin-dependent kinase 5 (Homo sapiens) (UniProt Q00535); assay: Inhibition of CDK5 at 1 uM
Chain of Cyclin-dependent kinase 5 (Homo sapiens) (Q00535 whole entry, looked up): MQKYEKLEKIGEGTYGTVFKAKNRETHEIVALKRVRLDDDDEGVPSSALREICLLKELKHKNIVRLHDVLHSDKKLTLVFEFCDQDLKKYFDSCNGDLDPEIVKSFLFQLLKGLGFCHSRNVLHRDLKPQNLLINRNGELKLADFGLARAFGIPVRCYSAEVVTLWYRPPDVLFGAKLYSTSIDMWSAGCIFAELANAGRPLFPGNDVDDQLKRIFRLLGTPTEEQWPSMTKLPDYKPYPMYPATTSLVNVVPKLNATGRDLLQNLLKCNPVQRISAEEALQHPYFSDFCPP

[46] = target: Dual specificity protein kinase CLK3 (Homo sapiens) (UniProt P49761); conditions: 1 uM
Description: Inhibition of CLK3 at 1 uM

[47] = target: Dual specificity tyrosine-phosphorylation-regulated kinase 1A (Homo sapiens) (UniProt Q13627); assay: Inhibition of DYRK1A at 1 uM
[48] = target: Vascular endothelial growth factor receptor 3 (Homo sapiens) (UniProt P35916); assay: Inhibition of FLT-4 at 1 uM
Chain of Vascular endothelial growth factor receptor 3 (Homo sapiens) (P35916 whole entry): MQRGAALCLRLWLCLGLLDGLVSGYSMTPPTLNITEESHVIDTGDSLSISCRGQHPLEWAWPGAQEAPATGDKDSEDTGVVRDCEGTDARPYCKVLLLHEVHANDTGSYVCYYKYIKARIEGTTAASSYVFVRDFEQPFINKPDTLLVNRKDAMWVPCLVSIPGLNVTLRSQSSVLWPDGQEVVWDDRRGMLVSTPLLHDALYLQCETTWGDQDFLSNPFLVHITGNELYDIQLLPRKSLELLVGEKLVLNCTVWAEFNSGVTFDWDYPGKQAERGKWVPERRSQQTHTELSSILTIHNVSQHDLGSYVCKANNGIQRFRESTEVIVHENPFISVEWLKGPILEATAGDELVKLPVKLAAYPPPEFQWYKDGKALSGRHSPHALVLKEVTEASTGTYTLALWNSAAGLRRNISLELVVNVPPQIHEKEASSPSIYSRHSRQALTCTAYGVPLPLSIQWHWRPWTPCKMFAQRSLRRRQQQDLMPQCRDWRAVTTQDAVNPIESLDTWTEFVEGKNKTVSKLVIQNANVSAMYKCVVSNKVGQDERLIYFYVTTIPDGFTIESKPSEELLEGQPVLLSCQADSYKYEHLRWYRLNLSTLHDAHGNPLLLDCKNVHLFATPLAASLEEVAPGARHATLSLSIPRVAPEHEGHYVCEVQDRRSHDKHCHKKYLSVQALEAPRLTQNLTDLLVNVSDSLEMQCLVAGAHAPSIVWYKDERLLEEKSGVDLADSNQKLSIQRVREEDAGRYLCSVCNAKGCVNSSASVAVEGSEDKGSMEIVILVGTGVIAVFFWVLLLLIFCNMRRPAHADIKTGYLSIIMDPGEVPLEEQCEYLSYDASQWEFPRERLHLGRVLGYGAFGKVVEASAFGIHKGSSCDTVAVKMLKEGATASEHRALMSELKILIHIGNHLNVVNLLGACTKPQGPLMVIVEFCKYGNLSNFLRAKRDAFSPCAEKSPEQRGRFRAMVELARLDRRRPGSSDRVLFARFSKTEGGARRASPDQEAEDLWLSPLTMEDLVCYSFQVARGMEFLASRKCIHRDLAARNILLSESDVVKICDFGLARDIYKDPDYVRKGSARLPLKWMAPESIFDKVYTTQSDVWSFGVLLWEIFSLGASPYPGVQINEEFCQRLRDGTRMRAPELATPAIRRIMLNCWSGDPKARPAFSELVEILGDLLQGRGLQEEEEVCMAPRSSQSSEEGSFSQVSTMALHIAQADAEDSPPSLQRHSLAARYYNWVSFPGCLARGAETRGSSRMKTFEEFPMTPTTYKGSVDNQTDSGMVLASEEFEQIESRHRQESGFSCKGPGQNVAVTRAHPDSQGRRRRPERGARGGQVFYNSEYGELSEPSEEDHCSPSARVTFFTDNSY

[49] = Plasma concentration in rat at 10 mg/kg, po after 4 hrs; assay type: ADME, organism-based; parameters: dose 10 mg/kg, route oral
[50] = target: Ribosomal protein S6 kinase alpha-2 (Homo sapiens) (UniProt Q15349); assay: Inhibition of RSK3 at 1 uM
[51] = Half life in mouse at 5 mg/kg, iv; assay type: ADME, organism-based; parameters: dose 5 mg/kg, route intravenous; conditions: in vivo

Cc1cnc(Nc2ccc(F)cc2Cl)nc1-c1c[nH]c(C(=O)N[C@H](CO)c2cccc(Cl)c2)c1
inhibition [1]: 3% | inhibition [2]: 18% | Ki [3]: 1.4 µM | Ki [4]: > 4 µM | inhibition [5]: 0% | inhibition [6]: 8% | inhibition [7]: 9% | inhibition [8]: 5% | inhibition [9]: 0% | Ki [10]: > 10 µM | inhibition [11]: 0% | inhibition [12]: 0% | inhibition [13]: 3% | inhibition [14]: 3% | inhibition [15]: 7% | inhibition [16]: 69% | AUC(0-t) at 8 h [17]: 1600 ng·h/mL | Ki [18]: > 4 µM | inhibition [19]: 6% | inhibition [20]: 1% | inhibition [21]: 0% | concentration at 8 h [22]: 17 ng/mL | inhibition [23]: 9% | Ki [24]: > 4 µM | inhibition [25]: 15% | Ki [26]: > 4 µM | inhibition [27]: 6% | Ki [28]: > 10 µM | half-life [29]: 3.2 h | inhibition [30]: 7% | inhibition [31]: 19% | bioavailability [32]: 65% | Ki [33]: > 10 µM | inhibition [34]: 25% | inhibition [35]: 3% | inhibition [36]: 6% | inhibition [37]: 5% | inhibition [38]: 3% | inhibition [39]: 12% | inhibition [40]: 0% | inhibition [41]: 10% | Vd [42]: 5.6 L/kg | inhibition [43]: 40% | inhibition [44]: 3% | inhibition [45]: 24% | inhibition [46]: 9% | inhibition [47]: 3% | inhibition [48]: 8% | concentration at 4 h [49]: 329 ng/mL | inhibition [50]: 7% | half-life [51]: 1.6 h
